Results on 31 compounds are retold here after patent publication US20090306392A1, “GSM INTERMEDIATES” (priority 2007, published 2009).

In the first experiment the test system is γ-secretase. Nature of the experiment: Screening for γ-secretase-modulating activity in SKNBE2 cells carrying APP 695-wild type. Format: cell-based. Conditions: 0.3 uM; SKNBE2 cells carrying the APP 695-wild type.
Take `CC(C)CCC(c1ccc(C(F)(F)F)cc1)N1CCCC(c2cc(-c3ccc(C(F)(F)F)cc3)cc([C@@H](CC(C)C)C(=O)O)c2)C1` (single isomer, unassigned) [Example 37, (R*)4-Methyl-2-(5-{1-[4-methyl-1-(4-trifluoromethyl-phenyl)-pentyl]-piperidin-3-yl}-4′-trifluoromethyl-biphenyl-3-yl)-pentanoic Acid]: the “% @ 0.3 uM (WTAPP)” value is listed as 44% @ 0.3 uM.
Consider `CC(C)CC(C(=O)O)c1cc(-c2ccc(C(F)(F)F)cc2)cc(N(C)c2ccc(C(F)(F)F)cc2)c1` (stereo not shown) [Example 13, 4-Methyl-2-{5-[methyl-(4-trifluoromethyl-phenyl)-amino]-4′-trifluoromethyl-biphenyl-3-yl}-pentanoic Acid], for which the “% @ 0.3 uM (WTAPP)” value is listed as 21% @ 0.3 uM.

Staying with this experiment, now noted: 3 uM; SKNBE2 cells carrying the APP 695-wild type.
With `CC(C)CC(C(=O)O)c1cc(Nc2cc(F)cc(F)c2)cc(-c2ccc(C(F)(F)F)cc2)c1` (stereo not shown) [Example 9, 2-[5-(3,5-Difluoro-phenylamino)-4′-trifluoromethyl-biphenyl-3-yl]-4-methyl-pentanoic Acid], the “inhibition @ 3 uM (WTAPP)” value is 73% inhibition @ 3 uM.
Still for that read-out and setting: then `CC(C)CC(C(=O)O)c1cc(Oc2cccc(C(C)C)c2)cc(-c2ccc(C(F)(F)F)cc2)c1` (stereo not shown) [Example 16, 2-[5-(3-Isopropyl-phenoxy)-4′-trifluoromethyl-biphenyl-3-yl]-4-methyl-pentanoic Acid], with 64% inhibition @ 3 uM.

Still in this experiment, the particulars now being: SKNBE2 cells carrying the APP 695-wild type; read-out: EC 50 WTAPP.
For the compound `CCC(c1ccc(C(F)(F)F)cc1)N1CCCC(c2cc(-c3ccc(C(F)(F)F)cc3)cc([C@H](CC(C)C)C(=O)O)c2)C1` (single isomer, unassigned) [Example 35, (S*)4-Methyl-2-(4′-trifluoromethyl-5-{1-[1-(4-trifluoromethyl-phenyl)-propyl]-piperidin-3-yl}-biphenyl-3-yl)-pentanoic Acid], the EC50 worked out at 590 nM.
On the same count and under the same terms, under `CC(C)C[C@@H](C(=O)O)c1cc(OCc2cc(F)cc(F)c2)cc(-c2ccc(C(F)(F)F)cc2)c1` [Example 1, (R)2-[5-(3,5-Difluoro-benzyloxy)-4′-trifluoromethyl-biphenyl-3-yl]-4-methyl-pentanoic Acid] stands 530 nM.
Same read-out and setting: then `CC(C)CCC(Oc1cc(-c2ccc(C(F)(F)F)cc2)cc(C(CC(C)C)C(=O)O)c1)c1cc(F)cc(F)c1` (stereo not shown) [Example 21, 2-{5-[1-(3,5-Difluoro-phenyl)-4-methyl-pentyloxy]-4′-trifluoromethyl-biphenyl-3-yl}-4-methyl-pentanoic Acid], with 230 nM; and `CC(C)C[C@@H](C(=O)O)c1cc(Nc2cc(C(F)(F)F)ccc2C(F)(F)F)cc(-c2ccc(C(F)(F)F)cc2)c1` [Example 12, (R)2-[5-(2,5-Bis-trifluoromethyl-phenylamino)-4′-trifluoromethyl-biphenyl-3-yl]-4-methyl-pentanoic Acid], with 150 nM; and `CC(C)CC(C(=O)O)c1cc(Nc2ccc(C(C)C)cc2)cc(-c2ccc(C(F)(F)F)cc2)c1` (stereo not shown) [Example 11, 2-[5-(4-Isopropyl-phenylamino)-4′-trifluoromethyl-biphenyl-3-yl]-4-methyl-pentanoic Acid], with 290 nM.
Still for that read-out and setting: then `CC(C)CC(C(=O)O)c1cc(NC(=O)c2cccc(C(F)(F)F)c2)cc(-c2ccc(C(F)(F)F)cc2)c1` (stereo not shown) [Example 25, 4-Methyl-2-[4′-trifluoromethyl-5-(3-trifluoromethyl-benzoylamino)-biphenyl-3-yl]-pentanoic Acid], with 1790 nM; and `CC(C)CCN(Cc1cc(F)cc(F)c1)c1cc(-c2ccc(C(F)(F)F)cc2)cc([C@@H](CC(C)C)C(=O)O)c1` [Example 40, 2-{5-[(3,5-Difluoro-benzyl)-(3-methyl-butyl)-amino]-4′-trifluoromethyl-biphenyl-3-yl}-4-methyl-pentanoic Acid], with 190 nM.
On to `CC(C)CC(C(=O)O)c1cc(-c2ccc(C(F)(F)F)cc2)cc(C2CCCN(Cc3ccc(C(F)(F)F)cc3)C2)c1` (stereo not shown) [Example 36, 4-Methyl-2-{4′-trifluoromethyl-5-[1-(4-trifluoromethyl-benzyl)-piperidin-3-yl]-biphenyl-3-yl}-pentanoic Acid], for which the EC50 is 510 nM.
Still for that read-out and setting: under `CC(C)C[C@H](C(=O)O)c1cc(OCc2cc(F)cc(F)c2)cc(-c2ccc(C(F)(F)F)cc2)c1` [Example 2, (S)-2-[5-(3,5-Difluoro-benzyloxy)-4′-trifluoromethyl-biphenyl-3-yl]-4-methyl-pentanoic Acid] stands 1520 nM; under `CC(C)CC(C(=O)O)c1cc(Oc2cc(F)cc(C(F)(F)F)c2)cc(-c2ccc(C(F)(F)F)cc2)c1` (stereo not shown) [Example 18, 2-[5-(3-Fluoro-5-trifluoromethyl-phenoxy)-4′-trifluoromethyl-biphenyl-3-yl]-4-methyl-pentanoic Acid], 330 nM.
The same measure, in the same setting: then `CC(C)CC(C(=O)O)c1cc(-c2ccc(C(F)(F)F)cc2)cc(C2CCCC(C(F)(F)F)N2)c1` (stereo not shown) [Example 27, 4-Methyl-2-[4′-trifluoromethyl-5-(6-trifluoromethyl-piperidin-2-yl)-biphenyl-3-yl]-pentanoic Acid], with 700 nM; and `CC(C)C[C@@H](C(=O)O)c1cc(OCc2ccc(F)cc2C(F)(F)F)cc(-c2ccc(C(F)(F)F)cc2)c1` [Example 3, (R)-2-[5-(4-fluoro-2-trifluoromethyl-benzyloxy)-4′-trifluoromethyl-biphenyl-3-yl]-4-methyl-pentanoic Acid], with 570 nM; and `CC(C)CC(C(=O)O)c1cc(NC2CCC(C(C)(C)C)CC2)cc(-c2ccc(C(F)(F)F)cc2)c1` (stereo not shown) [Example 33, 2-[5-(4-tert-Butyl-cyclohexylamino)-4′-trifluoromethyl-biphenyl-3-yl]-4-methyl-pentanoic Acid], with 64 nM.
As to `CC(C)CC(C(=O)O)c1cc(Oc2cc(F)cc(C(F)(F)F)c2)cc(-c2ccc(Cl)c(C(F)(F)F)c2)c1` (stereo not shown) [Example 17, 4-Methyl-2-[4′-chloro-3′-trifluoromethyl-5-(3-fluoro-5-trifluoromethylphenoxy)-biphenyl-3-yl]-pentanoic Acid], the EC50 was 140 nM.
Consider `CC(C)CCN(Cc1cc(-c2ccc(C(F)(F)F)cc2)cc(C(CC(C)C)C(=O)O)c1)Cc1cc(C(F)(F)F)cc(C(F)(F)F)c1` (stereo not shown) [Example 30, 2-(5-{[(3,5-Bis-trifluoromethyl-benzyl)-(3-methyl-butyl)-amino]-methyl}-4′-trifluoromethyl-biphenyl-3-yl)-4-methyl-pentanoic Acid], for which the EC50 came to 250 nM.
On to `CC(C)CC(C(=O)O)c1cc(OCc2cc(F)cc(F)c2)cc(-c2ccc(Cl)c(C(F)(F)F)c2)c1` (stereo not shown) [Example 4, 2-[4′-Chloro-5-(3,5-difluoro-2-benzyloxy)-3′-trifluoromethyl-biphenyl-3-yl]-4-methyl-pentanoic Acid], for which the EC50 was 310 nM.
Take `CC(C)CCN(Cc1cc(-c2ccc(C(F)(F)F)cc2)cc(C(CC(C)C)C(=O)O)c1)Cc1cc(F)c(F)c(F)c1` (stereo not shown) [Example 29, 4-Methyl-2-(5-{[(3-methyl-butyl)-(3,4,5-trifluoro-benzyl)-amino]-methyl}-4′-trifluoromethyl-biphenyl-3-yl)-pentanoic Acid]: the EC50 is 270 nM.
Take `CC(C)CC(C(=O)O)c1cc(/C=C/c2ccc(-c3ccccc3)cc2)cc(-c2ccc(C(F)(F)F)cc2)c1` (stereo not shown) [Example 23, 2-[5-(2-Biphenyl-4-yl-vinyl)-4′-trifluoromethyl-biphenyl-3-yl]-4-methyl-pentanoic Acid]: the EC50 was determined as 140 nM.
As to “(S*)4-Methyl-2-(5-{1-[4-methyl-1-(4-trifluoromethyl-phenyl)-pentyl]-piperidin-3-yl}-4′-trifluoromethyl-biphenyl-3-yl)-pentanoic Acid [Example 38]”, the EC50 is 450 nM.
Turning to `CC(C)CCC(Nc1cc(-c2ccc(C(F)(F)F)cc2)cc(C(CC(C)C)C(=O)O)c1)c1cc(F)cc(F)c1` (stereo not shown) [Example 34, 2-{5-[1-(3,5-Difluoro-phenyl)-4-methyl-pentylamino]-4′-trifluoromethyl-biphenyl-3-yl}-4-methyl-pentanoic Acid], the EC50 is 330 nM.
“4-Methyl-2-[4′-trifluoromethyl-5-(4-trifluoromethyl-phenylamino)-biphenyl-3-yl]-pentanoic Acid [Example 10]”: the EC50 came to 280 nM.
With `CC(C)CC(C(=O)O)c1cc(C(=O)c2cc(Cl)cc(Cl)c2)cc(-c2ccc(C(F)(F)F)cc2)c1` (stereo not shown) [Example 22, 2-[5-(3,5-Dichloro-benzoyl)-4′-trifluoromethyl-biphenyl-3-yl]-4-methyl-pentanoic Acid], the EC50 turned out to be 710 nM.
For the compound `CC(C)CCN1C(c2cc(-c3ccc(C(F)(F)F)cc3)cc(C(CC(C)C)C(=O)O)c2)CCCC1C(F)(F)F` (stereo not shown) [Example 28, 4-Methyl-2-{5-[1-(3-methyl-butyl)-6-trifluoromethyl-piperidin-2-yl]-4′-trifluoromethyl-biphenyl-3-yl}-pentanoic Acid], the EC50 is 110 nM.
The same measure, in the same setting: under `CC(C)CC(C(=O)O)c1cc(-c2ccc(C(F)(F)F)cc2)cc(-c2ccc(C(F)(F)F)cn2)c1` (stereo not shown) [Example 20, 4-Methyl-2-[4′-trifluoromethyl-5-(5-trifluoromethyl-pyridin-2-yl)-biphenyl-3-yl]-pentanoic Acid] stands 320 nM; under `CC(C)CCN(c1ccc(C(F)(F)F)cc1)c1cc(-c2ccc(C(F)(F)F)cc2)cc(C(CC(C)C)C(=O)O)c1` (stereo not shown) [Example 14, 4-Methyl-2-{5-[(3-methyl-butyl)-(4-trifluoromethyl-phenyl)-amino]-4′-trifluoromethyl-biphenyl-3-yl}-pentanoic Acid], 170 nM; under `CC(C)CCN(c1ccc(Cl)cc1)c1cc(-c2ccc(C(F)(F)F)cc2)cc(C(CC(C)C)C(=O)O)c1` (stereo not shown) [Example 15, 2-{5-[(4-Chloro-phenyl)-(3-methyl-butyl)-amino]-4′-trifluoromethyl-biphenyl-3-yl}-4-methyl-pentanoic Acid], 150 nM.
Take `CC(C)CC(C(=O)O)c1cc(-c2ccc(C(F)(F)F)cc2)cc(-c2cc(F)cc(F)c2)c1` (stereo not shown) [Example 5, 2-(3,5-Difluoro-4″-trifluoromethyl-[1,1′;3′,1″]terphenyl-5′-yl)-4-methyl-pentanoic Acid]: the EC50 came out at 190 nM.
